From paper PMC7155171, “Probing the Open Global Health Chemical Diversity Library for Multistage-Active Starting Points for Next-Generation Antimalarials” (ACS Infectious Diseases, 2020)
Read-outs that look alike come from different tables or passages of the source.

How the values were obtained:
P. falciparum Dd2 = assay: SYBR green I asexual blood stage proliferation assay (96 h); type: cell-based, Plasmodium falciparum; details: Plasmodium falciparum, DD2, 11-pt dose response, 96hr
[1] = tested on: P. falciparum Dd2 (PfLuc) line expressing firefly luciferase, asexual blood stage; assay: microbe, parasite or virus in culture; type: cell-based, Plasmodium falciparum; details: Plasmodium falciparum
[2] = Sybr Green I, read-out: CDD P. falciparum Sybr Green I ABS 11-pt Reconfirmation Dose Response (96hr): IC50
[3] = DD2, read-out: CDD P. falciparum Luciferase ABS 11-pt Reconfirmation Dose Response (48hr): IC50 (μM), 11-pt dose response, 48hr
[4] = DD2, 8-pt dose response, 96hr, read-out: CDD P. falciparum Luciferase ABS 8-pt Reconfirmation Dose Response (96hr): IC50
[5] = DD2, 11-pt dose response, 48hr, read-out: CDD P. falciparum Luciferase ABS 11-pt Reconfirmation Dose Response (48hr): Maximum inhibition (%)
[6] = DD2, 11-pt dose response, 96hr, read-out: CDD P. falciparum Luciferase ABS 11-pt Reconfirmation Dose Response (96hr): IC50
[7] = DD2, 11-pt dose response, 96hr, read-out: CDD P. falciparum Luciferase ABS 11-pt Reconfirmation Dose Response (96hr): Maximum inhibition (%)
[8] = Sybr Green I, read-out: CDD P. falciparum Sybr Green I ABS 11-pt Reconfirmation Dose Response (96hr): Maximum inhibition (%)
[9] = DD2, 8-pt dose response, 96hr, read-out: CDD P. falciparum Luciferase ABS 8-pt Reconfirmation Dose Response (96hr): Maximum inhibition (%)
[10] = 96 h incubation, Dd2 luciferase, read-out: 96 hour Pfluc IC50
[11] = read-out: P. falciparum Sybr Green I ABS 11-pt Reconfirmation Dose Response (96hr): IC50
[12] = read-out: P. falciparum Sybr Green I ABS 11-pt Reconfirmation Dose Response (96hr): Maximum inhibition (%)
[13] = DD2, read-out: P. falciparum Luciferase ABS 11-pt Reconfirmation Dose Response (48hr): IC50, 11-pt dose response, 48hr
[14] = DD2, 8-pt dose response, 96hr, read-out: P. falciparum Luciferase ABS 8-pt Reconfirmation Dose Response (96hr): IC50
[15] = DD2, 8-pt dose response, 96hr, read-out: P. falciparum Luciferase ABS 8-pt Reconfirmation Dose Response (96hr): Maximum inhibition (%)
[16] = DD2, 11-pt dose response, 48hr, read-out: P. falciparum Luciferase ABS 11-pt Reconfirmation Dose Response (48hr): Maximum inhibition (%)
[17] = DD2, 11-pt dose response, 96hr, read-out: P. falciparum Luciferase ABS 11-pt Reconfirmation Dose Response (96hr): IC50
[18] = DD2, 11-pt dose response, 96hr, read-out: P. falciparum Luciferase ABS 11-pt Reconfirmation Dose Response (96hr): Maximum inhibition (%)

Row | Structure (SMILES) | IC50 (P. falciparum Dd2; [2]) | IC50 [1, 3] | IC50 [1, 4] | Emax [1, 5] | IC50 [1, 6] | Emax [1, 7] | Emax (P. falciparum Dd2; [8]) | Emax [1, 9] | IC50 [1, 10] | IC50 (P. falciparum Dd2; [11]) | Emax (P. falciparum Dd2; [12]) | IC50 [1, 13] | IC50 [1, 14] | Emax [1, 15] | Emax [1, 16] | IC50 [1, 17] | Emax [1, 18]
1 | Cc1cc(C)cc(CN2C[C@H]3COC[C@H](N4CCN(C)CC4)[C@H]3C2)c1 [DDD01083756] | 1080 nM | 2.44 µM | 0.23 µM | 79.9% | 0.791 µM | 97.2% |  |  |  |  |  |  |  |  |  |  | 
2 | CC(C)N(C)Cc1cnc2n1CCN(C(=O)NC1CCCC1)C2 [DDD01085014] | 3090 nM | > 12.5 µM | 0.4 µM | 50.3% | 0.478 µM | 91% | 52.8% | 87.1% |  |  |  |  |  |  |  |  | 
3 | Fc1cnc(N2CCCC3(CCN(Cc4ccsc4)C3)C2)nc1 (stereo not drawn) [DDD01085292] | > 4160 nM | 2.31 µM | 1 µM | 68.3% | 1.53 µM | 92.4% | 70.7% | 83.3% |  |  |  |  |  |  |  |  | 
4 | c1cc(-c2n[nH]cc2-c2ccnc(N3CCCCCC3)n2)ccn1 [DDD01235864] | 5.64 nM | > 4.16 µM | 0.00697 µM | 62.2% | 0.0308 µM | 93.5% |  | 93.5% | 0.03 µM |  |  |  |  |  |  |  | 
5 | CN(CCO)C[C@@H]1CN(C2CCN(c3ccccc3Cl)CC2)C[C@@H]1CO [DDD01243670] | 1340 nM | 0.887 µM | 0.4 µM | 96.9% | 0.653 µM | 99.6% | 86.9% | 94.9% |  |  |  |  |  |  |  |  | 
6 | Oc1cccc2ccc(CN3CCC4(CCNCC4)C3)nc12 [DDD01243747] | 10800 nM | 0.642 µM | 0.76 µM | 97.9% | 0.231 µM | 101% | 75.2% | 92% |  |  |  |  |  |  |  |  | 
7 | Cn1cc(CN2CCCC(CCc3ccccc3C(F)(F)F)C2)cn1 (stereo not drawn) [DDD01243772] |  |  |  |  |  |  |  |  |  | 4890 nM | 62% | 4.26 µM | 1.59 µM | 82.8% | 66.1% | 4.34 µM | 
8 | NC1CCCCN(Cc2cc(-c3ccccc3OC(F)(F)F)no2)C1 (stereo not drawn) [DDD01244394] |  |  |  |  |  |  |  |  |  | > 4160 nM | 69.6% | > 4.16 µM | 1.45 µM | 88.9% | 84.8% | > 1.39 µM | 97.5%
9 | CC1CCCCN1C(=O)c1coc(COc2cccc3cnccc23)n1 (stereo not drawn) [DDD01245028] | 568 nM | 0.751 µM | 0.61 µM | 97% | 0.469 µM | 99.8% | 97.7% | 94% |  |  |  |  |  |  |  |  | 
10 | CCN(Cc1c(F)cccc1Cl)c1cc(C2CCNCC2)nc(C)n1 [DDD01245231] | 2500 nM | 0.763 µM | 0.55 µM | 99.4% | 0.504 µM | 99.8% | 81.1% | 91.3% |  |  |  |  |  |  |  |  | 
11 | CCC[C@H]1CN(S(=O)(=O)c2ccc(-c3c(C)noc3C)s2)C[C@@H]1N [DDD01245572] | 5570 nM | > 12.5 µM | 1 µM | 19% | 2.92 µM | 74.1% | 55.3% | 81.3% |  |  |  |  |  |  |  |  | 
12 | Clc1ccccc1C1(c2ccnc(C3CCCC3)n2)CCNCC1 [DDD01245610] | 3550 nM | 4.17 µM | 0.49 µM | 92.8% | 0.755 µM | 98.9% | 76.4% | 87.3% | 0.76 µM |  |  |  |  |  |  |  | 
13 | NCC1Cc2cc(-c3nccc(N4CCC(O)CC4)n3)cc(Cl)c2O1 (stereo not drawn) [DDD01245918] | 4210 nM | 2.64 µM | 0.55 µM | 75.2% | 1.96 µM | 96.7% | 83.9% | 92% |  |  |  |  |  |  |  |  | 
14 | CCCOc1ccc2ccccc2c1CN1CC[C@@]2(O)CCNC[C@H]2C1 [DDD01246029] | 2760 nM | 2.85 µM | 1 µM | 96.3% | 1.42 µM | 98.8% | 96.5% |  |  |  |  |  |  |  |  |  | 
15 | Clc1ccccc1C1(c2ccnc(C3CC3)n2)CCNCC1 [DDD01246037] | 4410 nM | 7.25 µM | 0.61 µM |  | 1.02 µM | 93.1% | 78% | 89.2% |  |  |  |  |  |  |  |  | 
16 | c1ccc(-c2nc3c(c(NCc4n[nH]c5c4CCC5)n2)CCNC3)cc1 [DDD01246472] | 2890 nM | 4.12 µM | 0.92 µM | 97.5% | 0.635 µM | 99.5% | 98.2% | 92.6% |  |  |  |  |  |  |  |  | 
17 | CCN1CC(c2ccccc2)CC2(CCN(Cc3ncc[nH]3)CC2)C1 (stereo not drawn) [DDD01246660] | 3390 nM | 7.46 µM | 0.79 µM | 59% | 3.35 µM | 85.5% | 89.2% | 90.9% |  |  |  |  |  |  |  |  | 
18 | Cc1ccc2[nH]c(-c3cn(C4CCNCC4)nn3)nc2c1C [DDD01246711] | 4360 nM | 2.21 µM | 0.43 µM | 79.2% | 2.07 µM | 99.2% | 79.6% | 94.9% |  |  |  |  |  |  |  |  | 
19 | Cc1cccc(CN2CCC(Cc3ccccc3F)CC2)n1 [DDD01246731] |  |  |  |  |  |  |  |  |  | 5160 nM | 92.8% | 2.01 µM | 1.12 µM |  |  | 0.529 µM | 100%
20 | CCN1CCN(C[C@@H]2CN(c3ncc(Cl)cc3F)C[C@@H]2CO)CC1 [DDD01246828] | 1110 nM | 1.58 µM | 0.63 µM | 98.3% | 0.961 µM | 99.3% | 100% | 94.8% |  |  |  |  |  |  |  |  | 
21 | CN[C@@H](C)C(=O)N(Cc1cccc(C)c1)Cc1ccccc1OC [DDD01246872] | 1070 nM | 1.7 µM | 0.47 µM | 61.6% | 0.75 µM | 89.6% | 62.7% | 85.5% |  |  |  |  |  |  |  |  | 
